ChEMBL document CHEMBL1201862, “PubChem BioAssay data set” (2004)
The source made the active and inactive calls.

Experiments:
[1] = control 3'UTR Renilla luciferase suppression, dose response, counter-screen for Shn3 inhibitor project, cell-based, Clone20-Shn3RL, cherry-picked (AID 624133); format: functional
[2] = intracellular Trypanosoma cruzi inhibitors in host cells – cell-based, plate reader, cherry-pick samples, set 3, dose response (AID 651818); format: functional;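 note: compounds incubated with infected cells for about four days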
[3] = A cytotoxicity screen of small molecule inhibitors of the PhoP region in Salmonella typhi identified in the primary screen. [Related pubchem assays: 1850, 1864, 1985 ]; format: functional
[4] = molecular target: T1, Polyadenylate-binding protein 1 (Homo sapiens, UniProt P11940); test: PABP1 MLLE–PAM2 interaction inhibitors, dose response, miRNA deadenylation inhibitor project, biochemical, fluorescence polarization, Cy5-PAM2 peptide, secondary (AID 602260); format: functional; settings: read-out: IC50_Mean
T1 sequence (P11940 whole entry): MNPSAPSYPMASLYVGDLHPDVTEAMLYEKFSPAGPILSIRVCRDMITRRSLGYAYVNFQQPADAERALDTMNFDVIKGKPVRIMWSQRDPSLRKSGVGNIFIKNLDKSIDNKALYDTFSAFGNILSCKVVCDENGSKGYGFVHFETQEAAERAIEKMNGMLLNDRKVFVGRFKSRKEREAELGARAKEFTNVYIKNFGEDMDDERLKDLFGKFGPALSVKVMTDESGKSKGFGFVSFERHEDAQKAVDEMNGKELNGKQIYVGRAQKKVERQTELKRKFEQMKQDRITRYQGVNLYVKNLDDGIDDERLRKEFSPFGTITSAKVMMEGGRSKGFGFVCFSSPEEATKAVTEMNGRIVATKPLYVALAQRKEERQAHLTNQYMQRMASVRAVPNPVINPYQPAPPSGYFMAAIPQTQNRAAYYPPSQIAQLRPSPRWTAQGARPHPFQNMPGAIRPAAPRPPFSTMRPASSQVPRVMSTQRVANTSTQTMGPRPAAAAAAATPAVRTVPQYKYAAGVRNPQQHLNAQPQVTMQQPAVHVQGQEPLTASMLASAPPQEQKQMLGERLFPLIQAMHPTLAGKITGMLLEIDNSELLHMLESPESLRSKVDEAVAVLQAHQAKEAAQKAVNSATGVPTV

[5] = molecular target: T1, Polyadenylate-binding protein 1; test: PABP1 MLLE–PAM2 binding inhibitor potency, dose response, biochemical, fluorescence polarization, FITC-PAM2 peptide (AID 602259); format: functional; settings: read-out: IC50_Mean
[6] = microbe, parasite or virus in culture; format: functional; settings: Mycobacterium tuberculosis
Protein skinhead-1 = molecular target: T2, Protein skinhead-1 (Caenorhabditis elegans, UniProt P34707); format: functional
T2 sequence (P34707 whole entry): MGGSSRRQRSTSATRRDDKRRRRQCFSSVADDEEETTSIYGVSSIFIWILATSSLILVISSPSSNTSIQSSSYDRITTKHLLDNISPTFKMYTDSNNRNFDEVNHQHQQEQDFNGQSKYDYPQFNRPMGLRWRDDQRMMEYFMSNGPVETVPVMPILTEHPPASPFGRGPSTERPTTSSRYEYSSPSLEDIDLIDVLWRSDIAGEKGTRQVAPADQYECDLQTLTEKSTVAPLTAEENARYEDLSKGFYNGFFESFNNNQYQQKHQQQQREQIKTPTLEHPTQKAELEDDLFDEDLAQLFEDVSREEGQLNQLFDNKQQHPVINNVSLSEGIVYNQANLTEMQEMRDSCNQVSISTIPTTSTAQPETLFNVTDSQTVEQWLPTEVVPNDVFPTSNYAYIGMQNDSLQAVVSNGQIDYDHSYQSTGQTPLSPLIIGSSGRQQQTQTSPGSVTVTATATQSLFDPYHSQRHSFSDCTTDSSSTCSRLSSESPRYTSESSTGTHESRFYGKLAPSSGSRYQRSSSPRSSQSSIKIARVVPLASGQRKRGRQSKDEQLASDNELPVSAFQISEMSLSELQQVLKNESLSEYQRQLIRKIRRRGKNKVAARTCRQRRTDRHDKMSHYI

[7] = system: Streptococcus sp. 'group A'; test: growth inhibition of control SK(-) GAS strain, dose response, counter-screen for streptokinase expression inhibitor project, luminescence, kanamycin, BacTiterGlo, confirmation (AID 1900); format: functional, organism-based
[8] = Luminescence Cell-Based Dose Retest to Confirm Inhibitors of Cancer Stem Cells. [Related pubchem assays (depositor defined):AID2717, AID2721]; format: functional; settings: Homo sapiens
Streptococcus = test: Group A Streptococcus viability loss, dose response, counter-screen for streptokinase expression inhibitor project, luminescence, BacTiterGlo (AID 1915); format: functional, organism-based;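 note: potency for reduction of bacterial viability or growth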
[9] = molecular target: T3, Zinc finger protein mex-5 (Caenorhabditis elegans, UniProt Q9XUB2); test: MEX-5/TCR-2 RNA interaction inhibitors, dose response, biochemical, C. elegans, fluorescence polarization (AID 1960)
T3 sequence (Q9XUB2 whole entry): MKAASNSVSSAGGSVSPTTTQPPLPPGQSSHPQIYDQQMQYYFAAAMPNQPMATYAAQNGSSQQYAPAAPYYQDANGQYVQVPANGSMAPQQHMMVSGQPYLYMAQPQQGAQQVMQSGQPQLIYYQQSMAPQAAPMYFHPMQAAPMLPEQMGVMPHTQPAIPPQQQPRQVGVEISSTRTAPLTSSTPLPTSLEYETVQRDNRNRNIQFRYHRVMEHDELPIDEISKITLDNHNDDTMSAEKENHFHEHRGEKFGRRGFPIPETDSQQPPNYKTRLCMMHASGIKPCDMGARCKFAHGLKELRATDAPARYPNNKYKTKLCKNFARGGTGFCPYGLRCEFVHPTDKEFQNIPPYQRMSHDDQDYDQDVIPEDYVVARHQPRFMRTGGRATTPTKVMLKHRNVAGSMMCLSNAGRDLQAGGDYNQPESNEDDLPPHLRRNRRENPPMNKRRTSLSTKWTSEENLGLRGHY

[10] = molecular target: T4, RNA-binding protein pos-1 (Caenorhabditis elegans, UniProt G5EF15); test: inhibitors of POS-1/mex-3 RNA binding, dose response, biochemical, fluorescence polarization (AID 1964);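 note: purified POS-1 fused to maltose binding protein made in E. coli; potency of compounds blocking POS-1 binding to fluorescent RNA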
T4 sequence (G5EF15 whole entry): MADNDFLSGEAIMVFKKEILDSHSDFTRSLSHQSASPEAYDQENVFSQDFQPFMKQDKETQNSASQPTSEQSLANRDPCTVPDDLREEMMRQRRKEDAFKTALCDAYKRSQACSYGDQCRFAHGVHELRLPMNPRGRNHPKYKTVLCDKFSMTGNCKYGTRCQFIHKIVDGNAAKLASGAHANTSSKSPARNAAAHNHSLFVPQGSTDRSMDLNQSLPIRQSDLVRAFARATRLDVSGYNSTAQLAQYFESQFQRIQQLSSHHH

[11] = Luminescence Cell-Based Dose Confirmation HTS to Identify Activators of 5'UTR Stem-Loop Driven Alpha-Synuclein mRNA Translation in H4 Neuroglioblastoma Cells. [Related pubchem assays: 1829 (Project Summary), 1814 (Primary HTS)]; format: functional
[12] = cytotoxicity toward NIH3T3 fibroblasts, dose response, counter-screen, cell-based, ATP luminescence, mouse fibroblasts (AID 2010); format: functional;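 note: cells exposed to compound for about 90 hours before reading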
[13] = inhibitors of intracellular T. cruzi replication, confirmation, NIH3T3 host cells, beta-gal luminescence (AID 2044); format: functional, cell-based;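 note: intracellular parasites grown in NIH/3T3 mouse fibroblasts as host cells; luminescent beta-galactosidase reporter signal from transgenic T. cruzi replicating inside host cells; inhibitors lower the luminescence signal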
[14] = Luminescence Cell-Based Dose Response HTS to Identify Activators of Luciferase Translation or Activity in H4 […] Cells. [Related pubchem assays: 1829 (Project Summary), 1814 (Primary HTS)]; format: functional
INS1 = test: beta cell apoptosis inhibitors, cytokine rescue, dose response, luminescence, retest (AID 449756); format: functional, cell-based; settings: Rattus norvegicus;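 note: cell death triggered by IL-1 beta plus TNF-alpha plus IFN-gamma mixture; protective hits raise ATP signal compared with cytokine alone wells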
H4 = test: Luminescence Cell-Based Dose Response HTS to Identify Activators of 5'UTR Stem-Loop Driven Prion Protein mRNA Translation in H4 Neuroglioblastoma Cells. [Related pubchem assays: 1829 (Project Summary), 1814 (Primary HTS)]; format: functional; settings: Homo sapiens
[15] = Shn3 3'UTR reporter inhibitors, dose response, cell-based, Clone20 osteoblasts, firefly luciferase, cherry-picked (AID 624132); format: functional;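 note: firefly luciferase luminescence from reporter carrying the Shn3 3'UTR in osteoblasts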
Paired box protein Pax-8 = Paired box protein Pax-8 (Homo sapiens, UniProt Q06710); test: inhibitors of PAX8-driven TPO luciferase reporter, dose response, RMG-I cells, cherry-pick (AID 687027); format: functional, cell-based;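 note: luciferase reporter driven by Pax8 target thyroperoxidase promoter measured by SteadyGlo luminescence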
Chain of Paired box protein Pax-8 (Q06710 whole entry): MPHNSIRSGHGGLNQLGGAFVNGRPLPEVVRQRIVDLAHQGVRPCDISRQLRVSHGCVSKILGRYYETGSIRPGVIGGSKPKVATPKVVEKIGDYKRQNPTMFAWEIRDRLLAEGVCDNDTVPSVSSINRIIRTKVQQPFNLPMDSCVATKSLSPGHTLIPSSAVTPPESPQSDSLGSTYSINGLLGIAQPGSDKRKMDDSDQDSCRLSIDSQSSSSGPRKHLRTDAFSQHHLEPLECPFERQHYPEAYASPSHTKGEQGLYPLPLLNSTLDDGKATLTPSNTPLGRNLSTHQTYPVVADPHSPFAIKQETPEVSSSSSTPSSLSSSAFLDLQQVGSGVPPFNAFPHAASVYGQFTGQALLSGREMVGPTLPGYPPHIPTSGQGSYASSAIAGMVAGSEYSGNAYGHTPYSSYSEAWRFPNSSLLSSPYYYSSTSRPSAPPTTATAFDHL

cells = format: functional
Streptokinase A = molecular target: T5, Streptokinase A (Streptococcus pyogenes serotype M1, UniProt P10520); test: S. pyogenes streptokinase expression inhibitors, potency, dose response, plasminogen activation absorbance, OD405 (AID 1914); format: functional, Streptococcus pyogenes M1 GAS;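 note: secreted streptokinase activity via plasminogen activation per viability signal from cell pellet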
T5 sequence (P10520 whole entry): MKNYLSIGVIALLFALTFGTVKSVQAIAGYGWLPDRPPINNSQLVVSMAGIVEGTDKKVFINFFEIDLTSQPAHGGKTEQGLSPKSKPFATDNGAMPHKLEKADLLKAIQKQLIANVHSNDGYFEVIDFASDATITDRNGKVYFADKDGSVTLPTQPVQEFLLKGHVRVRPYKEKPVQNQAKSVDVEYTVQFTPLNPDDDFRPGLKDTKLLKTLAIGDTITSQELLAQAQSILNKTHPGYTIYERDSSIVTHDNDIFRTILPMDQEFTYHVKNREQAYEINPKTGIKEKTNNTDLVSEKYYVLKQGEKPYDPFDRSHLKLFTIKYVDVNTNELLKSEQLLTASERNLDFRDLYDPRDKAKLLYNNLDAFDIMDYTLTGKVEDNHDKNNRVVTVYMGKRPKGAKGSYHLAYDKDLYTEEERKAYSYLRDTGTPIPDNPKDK

CCCCCCC#Cc1ccc2c(c1)COc1c3ccccc3nn1-2
AC50 [1]: 7.68 µM (active)

Cc1ccc(S(=O)(=O)N(C)C[C@@H]2Oc3c(NC(=O)Nc4ccc(C(F)(F)F)cc4)cccc3C(=O)N([C@H](C)CO)C[C@@H]2C)cc1
AC50 [2]: 5.16 µM (active)

O=[N+]([O-])c1ccc(-c2cnc(NO)nc2)cc1
EC50 [3]: > 50 µM (active)

CC(C)Oc1ccc(C(=O)NC2=NCCS2)cc1
IC50 [4]: > 66 µM (inactive) | IC50 [5]: > 66 µM (inactive)

CCCN1CCc2nc(S)nc(O)c2C1
IC50 [4]: > 66 µM (inactive) | IC50 [5]: > 66 µM (inactive)

NC(=O)c1ccc[n+](CC(=O)c2cccc([N+](=O)[O-])c2)c1
EC50 [3]: > 50 µM (active)

COc1nc(-c2ccccc2)cc(-c2ccc(OC)c(OC)c2)n1
CC50 [6]: > 40 µM (active)

CC1(C)c2ccccc2C(=O)c2ccccc21
IC50 (Protein skinhead-1): 24 µM (active)

CN1CCN(C2=Cc3ccc(Cl)cc3Sc3ccc(F)cc32)CC1
CC50 [6]: 33.1 µM (active) | EC50 [7]: 7.12 µM (active) | AC50 [8]: 6.81 µM (active) | EC50 (Streptococcus): 7.8 µM (active)

Cc1ccc[n+](-c2[nH]c(=O)sc2C=NNC(=O)c2ccccc2[O-])c1
IC50 [4]: > 66 µM (inactive) | EC50 [9]: 38.5 µM (active) | EC50 [10]: 42.4 µM (active) | IC50 [5]: 43.9 µM (inactive)

Cc1nc(NC(=O)C23CC4CC(CC(C4)C2)C3)sc1Cc1ccc2c(c1)OCO2
EC50 [11]: 15.8 µM (active) | EC50 [12]: > 60 µM (not active) | EC50 [13]: 0.844 µM (active) | EC50 [14]: 6.33 µM (active) | AC50 (INS1): 14.1 µM (active) | EC50 (H4): 8.65 µM (active)

N#C/C(=C(/O)c1ccco1)c1nc2ccccc2s1
EC50 [3]: > 50 µM (active)

COc1ccc(CNc2[nH]cnc3c4cc(OC)c(OC)cc4nc2-3)cc1
CC50 [6]: > 40 µM (active)

CC(c1ccccc1)(c1ccccc1)c1ccncc1
EC50 [3]: > 50 µM (active)

c1ccc(C2=NNC(c3ccccn3)=NN2)nc1
IC50 [4]: > 66 µM (inactive) | EC50 [9]: 22.4 µM (active) | EC50 [10]: 25.3 µM (active) | IC50 [5]: > 66 µM (inactive)

COc1ccc(-c2ccc(OC)c([C@H]3[C@@H]4C=CCC[C@@]4(C)C(=O)N3Cc3ccccc3)c2)cc1OC
CC50 [6]: > 40 µM (active)

CC(=O)NCCn1c(C)cc2ccccc21
IC50 (Protein skinhead-1): > 100 µM (inactive)

Cc1ccc(NC(S)=NCc2cccs2)cc1
EC50 [3]: > 50 µM (active)

Cc1cccc(N2CCN(C(=O)CCN3C(S)=NC(C)(C)CC3C)CC2)c1C (stereo not given)
EC50 [3]: > 50 µM (active)

CCOC(=O)c1c(N2C(=O)CC(Sc3ccccc3C(=O)O)C2=O)sc2c1CCCC2 (stereo not given)
IC50 [4]: > 66 µM (inactive) | IC50 [5]: > 66 µM (inactive)

COc1ccccc1C1CC(c2cccc(NS(C)(=O)=O)c2)=NN1S(=O)(=O)c1ccccc1 (stereo not given)
IC50 (Protein skinhead-1): > 100 µM (inactive)

CCC(C)(O)C(=O)OC1C(=O)OC2CC3C(C)=CC(=O)C(O)C3(C)C3C4(O)OCC23C1C(C)C4O (stereo not given)
AC50 [1]: 5.79 µM (active) | AC50 [15]: 0.866 µM (active) | AC50 (Paired box protein Pax-8): 0.426 µM (active)

COc1ccc(S(=O)(=O)N2CN3CCN(C3)C2)cc1
EC50 [3]: > 50 µM (active)

COC(=O)C(O)(c1ccc(NC(=S)NC(=O)c2ccccc2)cc1)C(F)(F)F (stereo not given)
IC50 (cells): 39.6 µM (active)

C[C@@]12C(=O)N(Cc3ccc(-c4ccccc4)cc3)CC(=O)N1[C@H](/C=C/c1ccccc1)[C@@H]1C(=O)N(c3ccccc3)C(=O)[C@@H]12
IC50 (Protein skinhead-1): > 100 µM (inactive)

O=C(Nc1ccc(Cl)cc1)NC1CCCCNC1=O (stereo not given)
IC50 (Protein skinhead-1): > 100 µM (inactive)

Sc1nc2ccccc2c2nc(-c3ccccc3)nn12
CC50 [6]: 35.2 µM (active) | EC50 [7]: 5.84 µM (active) | EC50 (Streptokinase A): > 150 µM (not active) | EC50 (Streptococcus): > 150 µM (not active)

O=C(N/N=C/c1cc(Cl)cc([N+](=O)[O-])c1O)C1CC1
EC50 [3]: > 50 µM (active)

Brc1ccc(-c2nnc(-c3ccccc3)o2)o1
IC50 (Protein skinhead-1): > 100 µM (inactive)

O=C(CCn1c(=O)c2ccccc2n(CC(=O)NCCC2=CCCCC2)c1=O)NCc1ccco1
IC50 (Protein skinhead-1): > 100 µM (inactive)

Clc1c(-c2ccccc2)nnn1-c1ccccc1
IC50 (Protein skinhead-1): > 100 µM (inactive)

CC1CC(C)CN(C(=O)COC(=O)c2ccc([N+](=O)[O-])o2)C1 (stereo not given)
IC50 (cells): 14.7 µM (active)

COc1cc(C(=O)NC(=S)Nc2ccc(NC(=O)c3ccco3)cc2)cc(OC)c1OC
IC50 [4]: > 66 µM (inactive) | EC50 [7]: 14.8 µM (active) | IC50 [5]: > 66 µM (inactive) | EC50 (Streptococcus): 7.42 µM (active)

O=C(NC(=S)Nc1ncccn1)c1ccccc1Br
IC50 [4]: > 66 µM (inactive) | IC50 [5]: > 66 µM (inactive)
